Source: US11000033B2, “Ketone or oxime compound, and herbicide” (NISSAN CHEMICAL CORPORATION, priority 2014, dated 2021)

What was measured:
Assay type in all cases: in vivo
Scirpus juncoides [1] = test: Test Example 1: herbicidal activity, application before weed generation in submerged conditions (symbol B); conditions: application herbicide amount 320 g/ha
In short: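 Steps: alluvial soil flooded to 4 cm; weed seeds sown together; rice seedlings (2.5 leaf) transplanted; diluted emulsion applied to water surface the same day as sowing; plants grown at 25–30 °C in greenhouse; herbicidal effect rated on a 0–5 scale at 3 weeks.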

[2] = tested on: Echinochloa oryzacola Vasing.; test: Test Example 2: herbicidal activity, application during weed generation in submerged conditions (symbol A); conditions: Table 23; application herbicide amount 320 g/ha; grade 0-5 by criteria of Test Example 1
In short: (§1)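 Seeds sown in flooded alluvial soil (4 cm water) were grown in a 25-30° C greenhouse. At the one- to two-leaf stage, diluted emulsion of compound was applied to the water surface at a predetermined rate. Effect was scored 3 weeks later.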

Scirpus juncoides [3] = test: Test Example 2: herbicidal activity, application during weed generation in submerged conditions (symbol B); conditions: Table 23; application herbicide amount 320 g/ha; grade 0-5 by criteria of Test Example 1
In short: as §1

[4] = tested on: Echinochloa crus-galli var. crus-galli; test: Test Example 3: herbicidal effect by foliage application, Wagner pot (symbol H); conditions: application herbicide amount 320 g/ha; for H (Echinochloa crus-galli var. crus-galli) herbicidal effect grade: Table 24
In short: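 Plants sown in submerged alluvial soil (water depth 0.1–0.5 cm) in a 25–30 °C greenhouse and grown 14 days. An emulsion of the compound diluted in water to a set herbicide amount was sprayed uniformly on foliage. Effect on each plant scored 3 weeks after application.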

Avena fatua = test: Test Example 4: herbicidal effect by soil treatment (symbol I); conditions: for Herbicidal effect grade, I: Avena fatua: application herbicide amount 320 g/ha; for I: Avena fatua, herbicidal effect grade: 320 g/ha
In short: (§2)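 Seeds were sown in sterilized diluvial soil, covered with about 1.5 cm of soil, and the soil surface was sprayed with a water-diluted emulsion of the compound at a predetermined rate. Plants grew in a greenhouse at 25° C. to 30° C.; effects were scored visually 3 weeks after application.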

Chenopodium album [5] = test: Test Example 4: herbicidal effect by soil treatment (symbol O); conditions: for Herbicidal effect grade, O: Chenopodium album: application herbicide amount 320 g/ha; for O: Chenopodium album, herbicidal effect grade: 320 g/ha
Excerpt: Herbicidal Effect Test by Soil Treatment
Sterilized diluvial soil was placed in a plastic box having a length of 21 cm, a width of 13 cm, and a depth of 7 cm. Each of the seeds of Digitaria ciliaris, Setaria viridis, Echinochloa crus-galli var. crus-galli, Avena fatua, Alopecurus myosuroides, Lolium multiflorum Lam., Apera spica-venti, Abutilon theophrasti, Amaranthus retroflexus, Chenopodium album, Stellaria media, Galium spurium, Veronica persica, corn, soybean, rice, wheat, beet, and rapeseed was sowed in a spot-like manner and was covered with the soil of a thickness of about 1.5 cm. Subsequently, the emulsion agent of the compound present invention prepared in accordance with Formulation Example 2 was diluted with water so as to be a predetermined herbicide amount and the diluted emulsion agent was uniformly applied to the surface of the soil with a small-size spray. The plastic box was placed in a greenhouse of 25° C. to 30° C. to grow plant. 3 weeks later from the herbicide application, the effect to each plant was investigated in accordance with the criteria of Test Example 1.

Stellaria media = test: Test Example 4: herbicidal effect by soil treatment (symbol P); conditions: for Herbicidal effect grade, P: Stellaria media: application herbicide amount 320 g/ha; for P: Stellaria media, herbicidal effect grade: 320 g/ha
In short: as §2

beet = test: Test Example 4: effect on crop by soil treatment (symbol f); conditions: for Effect on crop grade, f: beet: application herbicide amount 320 g/ha; for f: beet, effect grade on crop: 320 g/ha
In short: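 Plants grew in a 25° C. to 30° C. greenhouse after spot-sowing of seeds, including beet, rapeseed, wheat and rice, into sterilized diluvial soil under roughly 1.5 cm of cover soil.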

Digitaria ciliaris = test: Test Example 5: herbicidal effect by foliage application, plastic box (symbol F); conditions: 320 g/ha, 3 weeks after application
In short: (§3)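 Herbicide, formulated as an emulsion and diluted in water, is sprayed onto the aerial parts of 14-day seedlings. These were grown at 25° C. to 30° C. in sterilized diluvial soil; effects are graded after 3 weeks.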

Chenopodium album [6] = test: Test Example 5: herbicidal effect by foliage application, plastic box (symbol O); conditions: 320 g/ha, 3 weeks after application
In short: as §3

rice plant = test: Test Example 5: effect on crop by foliage application, plastic box (symbol b); conditions: 320 g/ha, 3 weeks after application
In short: (§4)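 Crop and weed seeds sown in spots in sterilized diluvial soil in plastic boxes and covered with about 1.5 cm soil. Plants raised in a greenhouse at 25° C. to 30° C. for foliar application.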

rapeseed = test: Test Example 5: effect on crop by foliage application, plastic box (symbol g); conditions: 320 g/ha, 3 weeks after application
In short: as §4

Row | Compound | B (Scirpus juncoides) herbicidal effect grade (Scirpus juncoides [1]) | Herbicidal effect grade, A: Echinochloa oryzacola Vasing. [2] | Herbicidal effect grade, B: Scirpus juncoides (Scirpus juncoides [3]) | H (Echinochloa crus-galli var. crus-galli) herbicidal effect grade [4] | Herbicidal effect grade, I: Avena fatua (Avena fatua) | Herbicidal effect grade, O: Chenopodium album (Chenopodium album [5]) | Herbicidal effect grade, P: Stellaria media (Stellaria media) | Effect on crop grade, f: beet (beet) | F: Digitaria ciliaris, herbicidal effect grade (Digitaria ciliaris) | O: Chenopodium album, herbicidal effect grade (Chenopodium album [6]) | b: directly sowed rice plant, effect on crop grade (rice plant) | Herbicidal effect grade, B: Scirpus juncoides (Scirpus juncoides [1]) | I: Avena fatua, herbicidal effect grade (Avena fatua) | O: Chenopodium album, herbicidal effect grade (Chenopodium album [5]) | P: Stellaria media, herbicidal effect grade (Stellaria media) | f: beet, effect grade on crop (beet) | F: Digitaria ciliaris, herbicidal effect (criteria 0-5) (Digitaria ciliaris) | O: Chenopodium album, herbicidal effect (criteria 0-5) (Chenopodium album [6]) | b: directly sowed rice plant, effect on crop (criteria 0-5) (rice plant) | g: rapeseed, effect on crop (criteria 0-5) (rapeseed) | other results
1 | CON=C(C)CC1C(O)=C(c2c(C)cc(C)cc2C)C(=O)C1C (mixture of isomers) [12-002] | 3 (Herbicidal ratio of 40% or higher and lower than 70%) | 5 (Herbicidal ratio of 90% or more (almost completely withered)) | 3 (Herbicidal ratio of 40% or higher and lower than 70%) | 5 (Herbicidal ratio of 90% or more (almost completely withered)) | 4 (Herbicidal ratio of 70% or higher and lower than 90%) | 0 (Herbicidal ratio of 5% or lower (almost no effect)) | 0 (Herbicidal ratio of 5% or lower (almost no effect)) | 0 (Herbicidal ratio of 5% or lower (almost no effect)) | 5 (Herbicidal ratio of 90% or more (almost completely withered)) | 2 (Herbicidal ratio of 20% or higher and lower than 40%) | 5 (Herbicidal ratio of 90% or more (almost completely withered)) | – | – | – | – | – | – | – | – | – | g: rapeseed, effect on crop grade (rapeseed): 5 (Herbicidal ratio of 90% or more (almost completely withered))
2 | CC(CC1CC(O)=C(c2c(C)cc(C)cc2C)C1=O)=NOCC[S+](C)[O-] (centres unmarked) [1-125] | – | 2 (Herbicidal ratio of 20% or higher and lower than 40%) | 0 (Herbicidal ratio of 5% or lower (almost no effect)) | – | – | – | – | – | – | – | – | 0 (Herbicidal ratio of 5% or lower (almost no effect)) | 3 (Herbicidal ratio of 40% or higher and lower than 70%) | 0 (Herbicidal ratio of 5% or lower (almost no effect)) | 0 (Herbicidal ratio of 5% or lower (almost no effect)) | 0 (Herbicidal ratio of 5% or lower (almost no effect)) | 5 (Herbicidal ratio of 90% or more (almost completely withered)) | 1 (Herbicidal ratio of 5% or higher and lower than 20%) | 5 (Herbicidal ratio of 90% or more (almost completely withered)) | 3 (Herbicidal ratio of 40% or higher and lower than 70%) | herbicidal effect on H (Echinochloa crus-galli var. crus-galli), grade 0-5 [4]: 5 (Herbicidal ratio of 90% or more (almost completely withered))
3 | CC#Cc1cc(C)c(C2=C(O)CC(CC(=NOCCOC)C3CC3)C2=O)c(C)c1 (centres unmarked) [9-021] | 5 (Herbicidal ratio of 90% or more (almost completely withered)) | 5 (Herbicidal ratio of 90% or more (almost completely withered)) | 5 (Herbicidal ratio of 90% or more (almost completely withered)) | 5 (Herbicidal ratio of 90% or more (almost completely withered)) | 1 (Herbicidal ratio of 5% or higher and lower than 20%) | 0 (Herbicidal ratio of 5% or lower (almost no effect)) | 0 (Herbicidal ratio of 5% or lower (almost no effect)) | 0 (Herbicidal ratio of 5% or lower (almost no effect)) | 5 (Herbicidal ratio of 90% or more (almost completely withered)) | 3 (Herbicidal ratio of 40% or higher and lower than 70%) | 5 (Herbicidal ratio of 90% or more (almost completely withered)) | – | – | – | – | – | – | – | – | – | g: rapeseed, effect on crop grade (rapeseed): 4 (Herbicidal ratio of 70% or higher and lower than 90%)
4 | CON=C(C)CC1CC(OC(=O)c2nsc(Cl)c2Cl)=C(c2c(C)cc(C)cc2C)C1=O (centres unmarked) [1-099] | – | 4 (Herbicidal ratio of 70% or higher and lower than 90%) | 4 (Herbicidal ratio of 70% or higher and lower than 90%) | – | – | – | – | – | – | – | – | 4 (Herbicidal ratio of 70% or higher and lower than 90%) | 2 (Herbicidal ratio of 20% or higher and lower than 40%) | 0 (Herbicidal ratio of 5% or lower (almost no effect)) | 0 (Herbicidal ratio of 5% or lower (almost no effect)) | 2 (Herbicidal ratio of 20% or higher and lower than 40%) | 5 (Herbicidal ratio of 90% or more (almost completely withered)) | 3 (Herbicidal ratio of 40% or higher and lower than 70%) | 5 (Herbicidal ratio of 90% or more (almost completely withered)) | 5 (Herbicidal ratio of 90% or more (almost completely withered)) | herbicidal effect on H (Echinochloa crus-galli var. crus-galli), grade 0-5 [4]: 5 (Herbicidal ratio of 90% or more (almost completely withered))
5 | CON=C(CC1CC(O)=C(c2c(C)cc(C)cc2C)C1=O)C(F)(F)F (centres unmarked) [1-097] | – | 1 (Herbicidal ratio of 5% or higher and lower than 20%) | 0 (Herbicidal ratio of 5% or lower (almost no effect)) | – | – | – | – | – | – | – | – | 0 (Herbicidal ratio of 5% or lower (almost no effect)) | 1 (Herbicidal ratio of 5% or higher and lower than 20%) | 3 (Herbicidal ratio of 40% or higher and lower than 70%) | 0 (Herbicidal ratio of 5% or lower (almost no effect)) | 0 (Herbicidal ratio of 5% or lower (almost no effect)) | 5 (Herbicidal ratio of 90% or more (almost completely withered)) | 1 (Herbicidal ratio of 5% or higher and lower than 20%) | 5 (Herbicidal ratio of 90% or more (almost completely withered)) | 3 (Herbicidal ratio of 40% or higher and lower than 70%) | –
